{
  "source": "paper PMC3493512",
  "about": "“Structures of SHV-1 β-Lactamase with Penem and Penam Sulfone Inhibitors That Form Cyclic Intermediates Stabilized by Carbonyl Conjugation” (PLoS ONE, 2012)",
  "target": "T1, SHV-1 β-lactamase (Klebsiella pneumoniae, UniProt P0AD64)",
  "T1 construct": "gene bla",
  "T1 sequence (P0AD64 22-286)": "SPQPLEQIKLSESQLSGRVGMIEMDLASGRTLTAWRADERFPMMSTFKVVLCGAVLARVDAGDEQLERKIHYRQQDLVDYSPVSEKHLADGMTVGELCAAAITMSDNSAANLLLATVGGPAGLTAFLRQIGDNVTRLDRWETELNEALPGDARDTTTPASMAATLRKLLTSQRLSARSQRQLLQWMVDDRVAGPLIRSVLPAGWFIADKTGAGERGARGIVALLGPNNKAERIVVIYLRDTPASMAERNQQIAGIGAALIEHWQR",
  "experiment": "X-ray crystal structure at […] Å (soak); Ki by direct competition kinetics",
  "assay_type": "biochemical",
  "data": [
    {"smiles": "C[C@]1(COC(=O)Cc2ccccc2)[C@H](C(=O)O)N2C(=O)/C(=C/c3ccccn3)[C@H]2S1(=O)=O", "note": "[SA1-204]", "values": [
      {"measurement": "Ki", "value": "42 ± 4", "unit": "nM"}
    ]}
  ]
}
